One data set in a line: in vitro. The settings on record: human, Caco-2.
Another data set concerns CYP3A4. Details: method as in PMID 15242978, PMID 9929500. The settings on record: cited from earlier work.

We go through two compounds from PMC12044326 (Clinical Pharmacology in Drug Development, 2025).

Protocol for in vitro: Caco-2 cells were obtained from American Type Culture Collection. Prior to the experiments,
the cells were seeded on 55 cm2 bottom culture dishes (Corning). The cells were cultured at
37°C in a humidified CO2 (5%) incubator and routinely passaged about once a week. Caco-2
cultured in the medium at 37°C in a humidified CO2 (5%) incubator for 23 days to prepare cell
The medium was changed 4 days after seeding and then changed every 2 or 3 days
thereafter. Before the experiment, the integrity of the Caco-2 cell monolayer was checked by
measuring the trans-epithelial electrical resistance (TEER) value. The TEER values of cell
In the transport experiments, the medium of top side of the cells (apical side) and basal
side of the cells (basal side) were replaced with the DMSO-HBSS solution, the inhibitor-HBSS
control), or the test solutions (digoxin and mannitol as substrates). The volumes of the replaced
solutions were 300 μL for the apical side and 1 mL for the basal side. The DMSO-HBSS […]
of the solution in each basal side (receiver side) were collected and measured for the
radioactivity using an LSC. […]
collected and measured for the radioactivity using an LSC. […]
side (receiver side) were collected and measured for the radioactivity using an LSC. […]
in each apical side and each basal side (donor side) were collected and measured for the
radioactivity using an LSC.

`CC(C)NCC(O)COc1cccc2ccccc12` (centres unmarked) [propranolol, reference compound]: the Papp in “in vitro” amounted to 27.8 ×10⁻⁶ cm/s.

Regarding `CCC(C)n1ncn(-c2ccc(N3CCN(c4ccc(OCC5COC(Cn6cncn6)(c6ccc(Cl)cc6Cl)O5)cc4)CC3)cc2)c1=O` (centres unmarked) [itraconazole], the “CYP3A4 inhibitor potency over ketoconazole” value with CYP3A4 is ~10 fold.

In general, Papp refers to the rate of passage across a membrane or cell layer, normalised by area and donor concentration. Low values mean slow passage, high ones fast passage.
